Experimental data taken from patent US20120263739A1, “ANTI INTEGRIN ANTIBODIES LINKED TO NANOPARTICLES LOADED WITH CHEMOTHERAPEUTIC AGENTS” (MERCK PATENT GMBH, priority 2009, published 2012).
In brackets after ≈: the same amount, converted by molar mass.

Columns and labels:
[1] = system: M21 cells; experiment: Cellular uptake and intracellular distribution, confocal laser scanning microscopy; format: cell-based; conditions: 10 ng/μl, 4 h at 37° C., CLSM
Experimental: Cellular uptake and intracellular distribution: The cellular uptake and intracellular distribution of these nanoparticulate formulations are shown by confocal laser scanning microscopy (CLSM). αvβ3 integrin-positive M21 melanoma cells are incubated with NP-Dox-DI17E6, with NP-Dox-IgG, or free Doxorubicin (FIG. 5). […] The overlay of the different fluorescence channels (FIG. 6B-D) verifies the intracellular uptake of NP-Dox-DI17E6 (FIG. 6A).
FIG. 5: Cellular uptake and intracellular distribution of nanoparticles studied by confocal laser scanning microscopy (CLSM). M21 cells were cultured on glass slides and treated with 10 ng/μl of the different nanoparticle formulations (referred to DI17E6 concentration or equivalent amount of control nanoparticles) for 4 h at 37° C. The green autofluorescence of the nanoparticles was used for detection and the red autofluorescence of doxorubicin. The cell membranes were stained with Concanavalin A AlexaFluor 350 (blue). Pictures were taken within inner sections of the cells. […]
Cellular uptake and intracellular distribution of the nanoparticles were studied by confocal laser scanning microscopy. […] (concentrations are calculated referred to DI17E6 or equivalent NP amounts as described in 2.5). […] Nanoparticles were detected at 488/520 nm. Doxorubicin was detected by red fluorescence at 488/590 nm.

[2] = system: αvβ3 positive melanoma cells M21 on vitronectin; experiment: Kinetic of cell detachment, transmitted light time lapse microscopy; format: cell-based; conditions: total incubation time 1-2 d
Experimental: A parallel detachment kinetic study of the different nanoparticulate formulations or free doxorubicin confirms the cell detachment assay. In this study detachment is observed by transmitted light time lapse microscopy over a period of 1-2 d. Pictures were done every 7 minutes. The detachment time of the cells is measured.
For the determination of cell detachment kinetics, cells were seeded in a vitronectin coated multiwell chamber and incubated with the different nanoparticulate formulations or free doxorubicin in a humidified, CO2-aerated climate chamber at 37° C. Detachment was observed by transmitted light time lapse microscopy over a period of 1-2 d. Pictures were done every 7 minutes. The detachment of the cells was analyzed by manual evaluation of the data.

[3] = system: αvβ3-positive M21 melanoma cells; experiment: MTT cell viability assay
Experimental: (§1) Cell viability was assessed using the 3-(4,5-dimethylthiazol-2-yl)-2,5-diphenyltetrazolium bromide (MTT) dye reduction assay [27] modified as described before [28].

[4] = system: αv-negative M21L cells; experiment: MTT cell viability assay
Experimental: as §1

[5] = biological target: alpha-v beta-3 integrin on M21 melanoma cells (UniProt P06756); experiment: cell-based or functional assay
[6] = system: αvβ3 integrin positive melanoma cells M21; experiment: Cell attachment on vitronectin coated surface; format: cell-based; conditions: 2 ng/μl, 1 h
Experimental: FIG. 8: Cell attachment on vitronectin coated surface. 2 ng/μl of free DI17E6 or the different nanoparticulate formulations were incubated together with the αvβ3 integrin positive melanoma cells M21 on vitronectin coated ELISA plates (concentrations are calculated referred to DI17E6 or equivalent NP amounts). After 1 h of incubation non-adherent cells were removed. Remaining attached cells were stained with CyQUANT GR and counted against untreated control as described in the manufacturer's instructions manual. (Internal control of each experiment n=10, one representative experiment out of 3 independent experiments is shown.)
αvβ3 integrin positive melanoma cells M21 were grown on vitronectin (MoBiTec, Göttingen, Germany) coated ELISA plates (Nunc, Wiesbaden, Germany). Therefore, ELISA 96-well plates were coated with 1 μg/ml vitronectin for 1 h at 37° C. Plates were blocked with 1% heat inactivated BSA (PAA, Cölbe, Germany) and incubated with either 2 ng/μl of free DI17E6 or the different nanoparticulate formulations (referred to free mAb) together with the cells in cell adhesion medium (RPMI 1640 with 2 mM L-glutamine supplemented with 1% BSA). […] Remaining attached cells were stained with CyQUANT GR (Invitrogen, Karlsruhe) and counted against untreated control in a microtiter ELISA reader as described in the manufacturer instructions manual.

[7] = system: αvβ3 integrin positive melanoma cells M21; experiment: Cell detachment from vitronectin coated surface; format: cell-based; conditions: 4 ng/μl, 4 h at 37° C.
Experimental: FIG. 9: Cell detachment from vitronectin coated surface. For cell detachment assay, 96-well ELISA plates were coated with vitronectin and cells were allowed to attach and spread for 1 h. Then, 4 ng/μl of free DI17E6 or the different unloaded or doxorubicin nanoparticulate formulations were added and the plates were incubated for additional 4 h at 37° C. to induce detachment (concentrations are calculated referred to DI17E6 or equivalent NP amounts). Detached cells were removed and remaining attached cells were stained with CyQUANT GR and counted against untreated control as described in the manufacturer's instructions manual. (Internal control of each experiment n=10, one representative experiment out of 9 independent experiments is shown.)
For cell detachment assays, 96-well ELISA plates were coated with vitronectin as described above. After blocking, cells were allowed to attach and spread for 1 h in cell adhesion medium. Then, 4 ng/μl or 10 ng/μl of either free DI17E6 or the different nanoparticulate formulations (referred to free mAb) were added and the plates were incubated for additional 4 h at 37° C. to induce detachment. Subsequently, plates were washed and processed as for cell adhesion assay. Specific inhibition of attachment or induction of detachment were determined relative to vitronectin-coated surfaces blocked with BSA.

alpha-v beta-3 integrin on M21 melanoma cells, sequence (P06756 31-1048, chain 1 of 2): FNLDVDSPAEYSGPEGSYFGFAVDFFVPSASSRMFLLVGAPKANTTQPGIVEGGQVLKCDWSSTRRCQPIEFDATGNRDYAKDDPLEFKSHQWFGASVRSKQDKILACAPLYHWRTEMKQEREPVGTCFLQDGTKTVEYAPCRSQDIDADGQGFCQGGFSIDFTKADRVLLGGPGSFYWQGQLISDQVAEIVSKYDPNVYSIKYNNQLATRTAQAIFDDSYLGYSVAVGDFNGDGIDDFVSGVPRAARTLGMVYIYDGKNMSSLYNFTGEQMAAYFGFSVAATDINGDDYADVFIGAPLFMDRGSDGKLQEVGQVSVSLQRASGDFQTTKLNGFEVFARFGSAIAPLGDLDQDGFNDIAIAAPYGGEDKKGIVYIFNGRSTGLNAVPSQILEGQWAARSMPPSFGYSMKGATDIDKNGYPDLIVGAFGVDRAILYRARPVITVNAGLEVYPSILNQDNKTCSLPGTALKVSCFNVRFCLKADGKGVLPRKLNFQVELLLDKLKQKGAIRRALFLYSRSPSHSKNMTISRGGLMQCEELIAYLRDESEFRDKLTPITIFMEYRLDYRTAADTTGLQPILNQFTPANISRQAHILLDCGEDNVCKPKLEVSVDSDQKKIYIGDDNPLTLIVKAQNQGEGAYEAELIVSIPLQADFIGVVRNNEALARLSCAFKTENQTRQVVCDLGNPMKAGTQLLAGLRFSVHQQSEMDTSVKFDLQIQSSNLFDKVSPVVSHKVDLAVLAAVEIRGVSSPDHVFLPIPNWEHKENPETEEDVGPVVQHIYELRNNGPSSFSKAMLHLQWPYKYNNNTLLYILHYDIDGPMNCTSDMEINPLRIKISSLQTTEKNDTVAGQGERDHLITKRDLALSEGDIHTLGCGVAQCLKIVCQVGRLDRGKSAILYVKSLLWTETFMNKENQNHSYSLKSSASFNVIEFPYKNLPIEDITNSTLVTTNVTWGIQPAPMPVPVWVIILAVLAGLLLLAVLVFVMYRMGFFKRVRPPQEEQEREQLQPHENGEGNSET
alpha-v beta-3 integrin on M21 melanoma cells, sequence (P05106 27-788, chain 2 of 2, further chain): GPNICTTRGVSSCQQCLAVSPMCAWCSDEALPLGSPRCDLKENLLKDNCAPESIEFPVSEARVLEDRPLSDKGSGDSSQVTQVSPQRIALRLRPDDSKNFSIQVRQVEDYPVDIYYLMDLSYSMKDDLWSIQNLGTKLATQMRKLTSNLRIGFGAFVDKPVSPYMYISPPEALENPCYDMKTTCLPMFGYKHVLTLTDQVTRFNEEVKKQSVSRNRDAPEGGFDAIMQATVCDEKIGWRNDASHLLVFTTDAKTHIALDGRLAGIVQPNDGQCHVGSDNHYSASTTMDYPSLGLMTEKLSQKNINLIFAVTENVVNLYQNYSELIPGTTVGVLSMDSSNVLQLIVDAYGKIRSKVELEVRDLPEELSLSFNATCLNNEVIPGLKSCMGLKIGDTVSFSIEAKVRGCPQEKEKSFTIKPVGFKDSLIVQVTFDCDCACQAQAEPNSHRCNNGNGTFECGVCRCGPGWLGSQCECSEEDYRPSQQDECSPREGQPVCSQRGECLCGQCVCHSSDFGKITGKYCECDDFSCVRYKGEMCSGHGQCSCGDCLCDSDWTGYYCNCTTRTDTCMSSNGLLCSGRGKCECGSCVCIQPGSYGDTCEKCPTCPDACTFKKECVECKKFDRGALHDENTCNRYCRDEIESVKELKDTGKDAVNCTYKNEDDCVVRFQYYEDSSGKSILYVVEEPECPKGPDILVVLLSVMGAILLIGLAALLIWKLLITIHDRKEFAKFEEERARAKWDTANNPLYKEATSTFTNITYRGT

Compound: COc1cccc2c1C(=O)c1c(O)c3c(c(O)c1C2=O)C[C@@](O)(C(=O)CO)C[C@@H]3O[C@H]1C[C@H](N)[C@H](O)[C@H](C)O1 [free doxorubicin, doxorubicin, reference compound]
- Cellular uptake and intracellular distribution [1]: Red doxorubicin fluorescence can be detected
- Cell death [h after incubation] [2]: 17 h
- IC50 ([3]; Homo sapiens, M21, read-out: IC-50 M21): 0.0575 ± 0.0037 µg/mL (≈ 0.106 µM)
- IC50 ([4]; read-out: IC-50 M21L): 0.0707 ± 0.0008 µg/mL (≈ 0.13 µM)

Compound: NP-Dox-DI17E6 (doxorubicin-loaded HSA nanoparticles with DI17E6 covalently coupled on the surface)
- IC-50 of MTT cell viability assay on M21 cells (referred to doxorubicin) [5]: 8 ng/mL

Compound: free DI17E6: deimmunized version of monoclonal mouse antibody 17E6, directed against αv integrins (SEQ ID No. 1 and 2)
- Inhibition of cell attachment to vitronectin coated surfaces [6]: inhibits the attachment of the M21 cells to vitronectin coated surfaces
- Cell detachment from vitronectin coated surfaces [7]: cell detachment of αvβ3 positive melanoma cells M21 from vitronectin coated surfaces is also possible
- IC-50 M21 ([3]; MTT, reduce cell viability by 50%, M21 cells): >100 ng/mL
- IC-50 M21L ([4]; MTT, reduce cell viability by 50%, M21L cells): >100 ng/mL
